Measured values: paper PMC2248166, “Quantitative peptide binding motifs for 19 human and mouse MHC class I molecules derived using positional scanning combinatorial peptide libraries” (Immunome Research, 2008)
Where a SMILES comes first, the peptide text is derived from it.

Experiments:
Test in all cases: biochemical
Format in all cases: binding
HLA B*0801 = HLA B*0801 (Homo sapiens, UniProt P01889, A93T/A95T/D138N/E176V/E187T/K202T/Q94N/R180D/S35A/V36M/Y33D/Y91F)
HLA B*1501 = HLA B*1501 (Homo sapiens, UniProt P01889, A329T/A93T/A95T/C349S/D201E/D98Y/E187L/E204Q/E69M/E70A/K202T/N87E/Q94N/R155S/R180W/S121R/S35A/S48A/V306I/V36M/Y140S/Y91S)
HLA B*1503 = HLA B*1503 (Homo sapiens, UniProt P01889, A329T/A93T/A95T/C349S/D201E/D98Y/E187L/E204Q/K202T/N87E/Q94N/R155S/R180L/S121R/S35A/V306I/V36M/Y140S/Y91S)
HLA A*3001 = HLA A*3001 (Homo sapiens, UniProt P04439, D140H/D185E/E176W/F33S/G80R/H175R/K168Q/R138E/R41S)
HLA A*3201 = HLA A*3201 (Homo sapiens, UniProt P04439, A270S/D101S/D185E/E176V/E277Q/F133L/G103R/G107R/G231S/H175R/I121M/I218V/I322F/K168Q/L105A/L300P/L318F/M331R/P208A/P217A/Q94H/R106L/R138Q/S129P/T104I/T323A/T345S/V100E/V321M/V358M)

Sequence of HLA A*3001 (P04439 25-365 limits assumed, stated change not applied): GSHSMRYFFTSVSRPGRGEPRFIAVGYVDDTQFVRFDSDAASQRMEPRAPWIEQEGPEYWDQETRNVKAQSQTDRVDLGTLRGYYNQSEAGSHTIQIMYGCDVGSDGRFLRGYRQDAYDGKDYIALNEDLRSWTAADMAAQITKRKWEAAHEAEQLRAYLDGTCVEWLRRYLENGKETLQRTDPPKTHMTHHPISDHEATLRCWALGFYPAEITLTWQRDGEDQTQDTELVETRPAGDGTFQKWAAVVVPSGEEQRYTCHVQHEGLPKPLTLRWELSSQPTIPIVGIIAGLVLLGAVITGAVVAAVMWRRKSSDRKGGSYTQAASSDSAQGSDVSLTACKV

Compound | IC50 (HLA B*0801) [nM] | IC50 (HLA B*1501) [nM] | IC50 (HLA B*1503) [nM] | IC50 (HLA A*3001) [nM] | IC50 (HLA A*3201) [nM]
CC(C)[C@H](NC(=O)[C@H](Cc1ccccc1)NC(=O)[C@H](CC(=O)O)NC(=O)[C@H](CC(N)=O)NC(=O)[C@H](CCCCN)NC(=O)[C@@H]1CCCN1C(=O)[C@@H](N)Cc1ccccc1)C(=O)N[C@@H](CO)C(=O)N[C@@H](Cc1ccccc1)C(=O)O [3102.0637] (H-FPKNDFVSF-OH) | 16 | 10 | 4.2 |  | 
CC[C@H](C)[C@H](NC(=O)[C@@H](N)CCCNC(=N)N)C(=O)N[C@@H](CCCNC(=N)N)C(=O)N[C@@H](CCCNC(=N)N)C(=O)N[C@@H](Cc1ccccc1)C(=O)N[C@@H](CCCNC(=N)N)C(=O)N[C@@H](CCCNC(=N)N)C(=O)N1CCC[C@H]1C(=O)N[C@@H](CCSC)C(=O)O [3102.0681] (H-RIRRFRRPM-OH) | 8.9 | 36 | 30 | 4.4 | 
CC[C@H](C)[C@H](NC(=O)[C@H](Cc1c[nH]cn1)NC(=O)[C@H](CS)NC(=O)[C@H](CC(C)C)NC(=O)[C@H](CC(C)C)NC(=O)[C@@H](N)CC(N)=O)C(=O)N[C@@H](Cc1ccc(O)cc1)C(=O)N[C@@H](CO)C(=O)N[C@@H](CC(C)C)C(=O)O [3102.0692] (H-NLLCHIYSL-OH) | 0.31 |  |  |  | 232
CSCC[C@H](NC(=O)[C@H](CC(C)C)NC(=O)[C@@H](N)CCSC)C(=O)N[C@@H](CC(N)=O)C(=O)N[C@@H](Cc1c[nH]cn1)C(=O)N[C@H](C(=O)N[C@@H](C)C(=O)N[C@@H](CC(N)=O)C(=O)N[C@@H](Cc1ccccc1)C(=O)O)C(C)C [3102.0720] (H-MLMNHVANF-OH) | 3.3 |  |  |  | 8.3
CC[C@H](C)[C@H](NC(=O)[C@@H](NC(=O)[C@H](Cc1c[nH]cn1)NC(=O)[C@H](CCCNC(=N)N)NC(=O)[C@H](CC(C)C)NC(=O)[C@@H](NC(=O)[C@H](Cc1ccccc1)NC(=O)[C@H](CCSC)NC(=O)[C@@H](N)CO)[C@@H](C)O)[C@@H](C)CC)C(=O)O [3102.0752] (H-SMFTLRHII-OH) | 1.8 |  |  |  | 83
CC[C@H](C)[C@H](NC(=O)[C@H](CCCNC(=N)N)NC(=O)[C@H](Cc1ccc(O)cc1)NC(=O)[C@H](CCSC)NC(=O)[C@H](CO)NC(=O)[C@@H](N)CCCNC(=N)N)C(=O)N1CCC[C@H]1C(=O)N1CCC[C@H]1C(=O)N[C@@H](Cc1ccccc1)C(=O)O [3102.0766] (H-RSMYRIPPF-OH) | 158 |  |  |  | 0.73
CC[C@H](C)[C@H](NC(=O)[C@@H](N)Cc1ccccc1)C(=O)N[C@@H](CCCNC(=N)N)C(=O)N[C@@H](Cc1ccc(O)cc1)C(=O)N[C@@H](CCCNC(=N)N)C(=O)N[C@@H](CCSC)C(=O)N[C@@H](Cc1c[nH]cn1)C(=O)N1CCC[C@H]1C(=O)N[C@@H](CCSC)C(=O)O [3102.0768] (H-FIRYRMHPM-OH) | 0.21 | 1.2 | 22 |  | 
CC[C@H](C)[C@H](NC(=O)[C@H](CC(C)C)NC(=O)[C@@H](N)CC(N)=O)C(=O)N[C@H](C(=O)N[C@@H](CC(C)C)C(=O)N[C@@H](C)C(=O)N[C@H](C(=O)N[C@@H](CO)C(=O)N[C@@H](Cc1ccccc1)C(=O)O)C(C)C)[C@@H](C)O [3102.0798] (H-NLITLAVSF-OH) | 328 | 81 | 15 |  | 
CC(C)C[C@H](NC(=O)[C@H](CCC(=O)O)NC(=O)[C@H](CC(N)=O)NC(=O)[C@H](CCCNC(=N)N)NC(=O)[C@H](CC(=O)O)NC(=O)[C@H](CCCCN)NC(=O)[C@H](CC(C)C)NC(=O)[C@@H](N)CC(C)C)C(=O)N[C@@H](Cc1ccccc1)C(=O)O [3102.0842] (H-LLKDRNELF-OH) | 41 | 1.8 | 16 |  | 
CC[C@H](C)[C@H](NC(=O)[C@H](CCCNC(=N)N)NC(=O)[C@H](Cc1c[nH]cn1)NC(=O)[C@H](CS)NC(=O)[C@@H](NC(=O)[C@@H](N)CCSC)C(C)C)C(=O)N[C@@H](CC(C)C)C(=O)N[C@H](C(=O)N[C@@H](Cc1ccc(O)cc1)C(=O)O)[C@@H](C)O [3102.0849] (H-MVCHRILTY-OH) | 220 | 70 | 28 |  | 
CC(C)C[C@H](NC(=O)[C@@H](N)CC(C)C)C(=O)N[C@@H](CCCCN)C(=O)N1CCC[C@H]1C(=O)N[C@@H](CCCNC(=N)N)C(=O)N[C@@H](CS)C(=O)N[C@@H](CC(N)=O)C(=O)N1CCC[C@H]1C(=O)N[C@@H](C)C(=O)O [3102.0901] (H-LLKPRCNPA-OH) | 1.2 | 21 |  |  | 
CSCC[C@H](NC(=O)[C@@H](N)CC(C)C)C(=O)N[C@@H](Cc1ccccc1)C(=O)N[C@@H](CCCCN)C(=O)N[C@@H](Cc1c[nH]cn1)C(=O)N[C@@H](CC(C)C)C(=O)N[C@@H](CC(C)C)C(=O)N[C@@H](Cc1c[nH]cn1)C(=O)N1CCC[C@H]1C(=O)O [3102.0908] (H-LMFKHLLHP-OH) | 1 | 103 | 26 |  | 
CSCC[C@H](NC(=O)[C@@H](N)CO)C(=O)N[C@@H](Cc1c[nH]cn1)C(=O)N[C@@H](Cc1ccccc1)C(=O)N[C@@H](Cc1ccc(O)cc1)C(=O)NCC(=O)N[C@@H](Cc1c[nH]c2ccccc12)C(=O)N[C@@H](CO)C(=O)N[C@@H](CC(C)C)C(=O)O [3102.0946] (H-SMHFYGWSL-OH) | 2.9 | 63 |  |  | 
CC[C@H](C)[C@H](NC(=O)[C@H](CS)NC(=O)[C@H](CS)NC(=O)[C@H](Cc1c[nH]cn1)NC(=O)[C@H](CCCNC(=N)N)NC(=O)[C@H](CO)NC(=O)[C@@H](NC(=O)[C@H](CCSC)NC(=O)[C@@H](N)CO)[C@@H](C)CC)C(=O)O [3102.0973] (H-SMISRHCCI-OH) | 1.3 | 81 |  |  | 
CC[C@H](C)[C@H](NC(=O)[C@@H]1CCCN1C(=O)[C@H](CC(C)C)NC(=O)[C@H](Cc1ccccc1)NC(=O)[C@H](CO)NC(=O)[C@H](CCSC)NC(=O)[C@H](CCCCN)NC(=O)[C@H](CO)NC(=O)[C@@H](N)CCC(=O)O)C(=O)O [3102.0979] (H-ESKMSFLPI-OH) | 1.1 | 358 |  |  | 
CC[C@H](C)[C@H](NC(=O)[C@H](CCCCN)NC(=O)[C@@H]1CCCN1C(=O)[C@H](CCCNC(=N)N)NC(=O)[C@@H](NC(=O)[C@@H](N)CC(C)C)[C@@H](C)CC)C(=O)N[C@@H](CC(C)C)C(=O)N[C@@H](CO)C(=O)N[C@@H](CCSC)C(=O)O [3102.0983] (H-LIRPKILSM-OH) | 0.55 | 10 |  |  | 
CC[C@H](C)[C@H](NC(=O)[C@H](CO)NC(=O)[C@@H](N)CCCNC(=N)N)C(=O)N[C@@H](CCCNC(=N)N)C(=O)N[C@@H](CCCCN)C(=O)N[C@@H](Cc1ccccc1)C(=O)N[C@@H](CC(N)=O)C(=O)N[C@H](C(=O)N[C@@H](CCSC)C(=O)O)[C@@H](C)O [3102.1003] (H-RSIRKFNTM-OH) | 17 | 4.4 |  |  | 
CC[C@H](C)[C@H](NC(=O)[C@@H](NC(=O)[C@H](CO)NC(=O)[C@H](CO)NC(=O)[C@H](CO)NC(=O)[C@H](CCCCN)NC(=O)[C@H](C)NC(=O)[C@@H](NC(=O)[C@@H](N)CC(C)C)[C@@H](C)CC)C(C)C)C(=O)O [3102.1021] (H-LIAKSSSVI-OH) | 13 | 23 |  | 11 | 
CC[C@H](C)[C@H](NC(=O)[C@@H](NC(=O)[C@H](CC(C)C)NC(=O)CNC(=O)[C@H](C)NC(=O)[C@H](Cc1ccc(O)cc1)NC(=O)[C@H](CCCCN)NC(=O)[C@H](CC(C)C)NC(=O)[C@@H](N)CC(C)C)[C@@H](C)O)C(=O)O [3102.1023] (H-LLKYAGLTI-OH) | 105 | 4.5 |  |  | 
CSCC[C@H](NC(=O)[C@@H](N)CO)C(=O)N[C@@H](CCCCN)C(=O)N[C@H](C(=O)N[C@H](C(=O)N[C@@H](Cc1ccccc1)C(=O)N[C@@H](CCC(N)=O)C(=O)N[C@H](C(=O)N[C@@H](Cc1ccccc1)C(=O)O)C(C)C)C(C)C)[C@@H](C)O [3102.1083] (H-SMKTVFQVF-OH) | 179 | 1.6 | 3.8 |  | 
CC[C@H](C)[C@H](NC(=O)[C@H](Cc1ccccc1)NC(=O)[C@H](CCCNC(=N)N)NC(=O)[C@H](CCC(=O)O)NC(=O)[C@@H](NC(=O)[C@H](CCSC)NC(=O)[C@@H](N)Cc1ccc(O)cc1)[C@@H](C)CC)C(=O)N[C@@H](CO)C(=O)N[C@@H](Cc1ccccc1)C(=O)O [3102.1085] (H-YMIERFISF-OH) | 0.35 | 0.11 | 0.046 |  | 
CC(C)[C@H](NC(=O)[C@H](CCCNC(=N)N)NC(=O)[C@@H](N)Cc1ccccc1)C(=O)N[C@H](C(=O)N[C@@H](CCCCN)C(=O)N1CCC[C@H]1C(=O)N[C@@H](CC(N)=O)C(=O)N[C@@H](CO)C(=O)N[C@@H](Cc1ccccc1)C(=O)O)C(C)C [3102.1127] (H-FRVVKPNSF-OH) | 91 | 108 |  |  | 
CC[C@H](C)[C@H](NC(=O)[C@@H](NC(=O)[C@H](CC(N)=O)NC(=O)[C@H](CCSC)NC(=O)[C@@H](N)CO)[C@@H](C)O)C(=O)N[C@@H](CCCCN)C(=O)N[C@@H](CCC(N)=O)C(=O)N[C@@H](CO)C(=O)N[C@@H](Cc1ccccc1)C(=O)O [3102.1144] (H-SMNTIKQSF-OH) | 450 |  | 17 |  | 293
CSCC[C@H](NC(=O)[C@@H](NC(=O)[C@H](CO)NC(=O)CNC(=O)[C@H](CC(=O)O)NC(=O)[C@@H](NC(=O)[C@@H](NC(=O)[C@H](CCSC)NC(=O)[C@@H](N)Cc1ccc(O)cc1)C(C)C)C(C)C)C(C)C)C(=O)O [3102.1153] (H-YMVVDGSVM-OH) | 390 | 2.5 | 1 |  | 
